The source of these data is patent US10723699B2 (Hyundai Pharm Co., Ltd., priority 2015, dated 2020).

The assay deals with T1, G protein-coupled receptor 119 (GPR-119) (Mesocricetus auratus, UniProt A0A1U8CD06).
T1 construct: hamster-derived β-cells containing G protein-coupled receptor 119 (GPR-119), HIT-T15 cells; host or cells: HIT-T15 (hamster pancreatic β-cells)
T1 sequence (A0A1U8CD06 1-334): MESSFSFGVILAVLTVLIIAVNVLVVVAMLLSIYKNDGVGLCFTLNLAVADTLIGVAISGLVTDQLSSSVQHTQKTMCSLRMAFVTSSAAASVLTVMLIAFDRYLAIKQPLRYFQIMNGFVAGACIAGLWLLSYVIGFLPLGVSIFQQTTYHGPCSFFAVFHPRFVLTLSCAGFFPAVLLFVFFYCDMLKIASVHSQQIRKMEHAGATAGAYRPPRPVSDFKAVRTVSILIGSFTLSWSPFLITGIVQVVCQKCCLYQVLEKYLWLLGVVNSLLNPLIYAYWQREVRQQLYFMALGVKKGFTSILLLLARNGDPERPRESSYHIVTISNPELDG
Put plainly: cAMP activity in HIT-T15 cells (cAMP dynamic kit, FRET). The class given is cell-based, hamster. In outline: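 Hamster HIT-T15 cells (60,000/well) were treated next day with compound at six concentrations, 0.0032–10 μM, for 1 h at 37° C. Cells were then lysed and cAMP measured by competitive HTRF immunoassay (D2-cAMP, cryptate anti-cAMP). Activity was derived as the change in FRET signal relative to DMSO.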

Setting [1] is: 1 hour at 37° C., six concentrations 0.0032 to 10 μM, read-out: EC50.

Like-named read-outs stand apart in the source and are kept apart here. Bounds are passed on as bounds.

As to `O=C(Oc1ccccc1)N1CCC(COc2ccc(C3=CCC(C(=O)N4CCCC4)CC3)cc2F)CC1` (stereo not drawn) [Example 403, phenyl 4-((2-fluoro-4-(4-(pyrrolidine-1-carbonyl)cyclohex-1-enyl)phenoxy)methyl)piperidine-1-carboxylate], the EC50 under setting [1] was 22 nM and the EC50 (Table 2, read-out: EC50 value) is no more than 50 nM. As to `CC(C)c1noc(N2CCC(COc3ccc(C4=CCC(C(=O)N5CCC(=O)C5)CC4)cc3)CC2)n1` (stereo not drawn) [Example 251], the EC50 is 22 nM under setting [1] and no more than 50 nM (Table 2, read-out: EC50 value). As to `CCc1cnc(N2CCC(COc3ccc(C4=CCC(C(=O)N(CCO)CCO)CC4)cc3F)CC2)nc1` (stereo not drawn) [Example 323, 4-(4-((1-(5-ethylpyrimidin-2-yl)piperidin-4-yl)methoxy)-3-fluorophenyl)-N,N-bis(2-hydroxyethyl)cyclohex-3-enecarboxamide], the EC50 is, setting by setting: under setting [1], 28 nM; (Table 2, read-out: EC50 value) no more than 50 nM. For `CC(C)c1noc(N2CCC(COc3ccc(C4=CCC(C(=O)N5CCN(CCCO)CC5)CC4)cc3F)CC2)n1` (stereo not drawn) [Example 347, (4-(3-fluoro-4-((1-(3-isopropyl-1,2,4-oxadiazol-5-yl)piperidin-4-yl)methoxy)phenyl)cyclohex-3-enyl)(4-(3-hydroxypropyl)piperazin-1-yl)methanone], the EC50 under setting [1] came out at 55 nM. `CCc1cnc(N2CCC(COc3ccc(C4=CCC(C(=O)N5CCC6(CC5)OCCO6)CC4)cc3F)CC2)nc1` (stereo not drawn) [Example 306, (4-(4-((1-(5-ethylpyrimidin-2-yl)piperidin-4-yl)methoxy)-3-fluorophenyl)cyclohex-3-enyl)(1,4-dioxa-8-azaspiro[4.5]decan-8-yl)methanone]: the EC50 by setting is: (EC50 (nM), 1 hour at 37° C., six concentrations 0.0032 to 10 μM) 8.9 nM; (EC50 value, Table 2) no more than 50 nM. As to `CC(C)c1noc(N2CCC(COc3ccc(C4=CCC(C(=O)N5CCSCC5)CC4)cn3)CC2)n1` (stereo not drawn) [Example 318, (4-(6-((1-(3-isopropyl-1,2,4-oxadiazol-5-yl)piperidin-4-yl)methoxy)pyridin-3-yl)cyclohex-3-enyl)(thiomorpholino)methanone], the EC50 under setting [1] amounted to 38 nM and the EC50 (Table 2, read-out: EC50 value) is no more than 50 nM. For the compound `CC(C)(C)OC(=O)N1CCC(COc2ccc(C3=CCC(C(=O)N4CCC5(C=Cc6ccccc65)CC4)CC3)cc2)CC1` (stereo not drawn) [Example 264, tert-butyl 4-((4-(4-(spiro[indene-1,4′-piperidin]-1′-ylcarbonyl)cyclohex-1-enyl)phenoxy)methyl)piperidine-1-carboxylate], the EC50 (Table 2, read-out: EC50 value) was no more than 50 nM. `CCc1cnc(N2CCC(COc3ccc(C4=CCC(C(=O)N5CCN(C)CC5)CC4)cc3F)CC2)nc1` (stereo not drawn) [Example 384, (4-(4-((1-(5-ethylpyrimidin-2-yl)piperidin-4-yl)methoxy)-3-fluorophenyl)cyclohex-3-enyl)(4-methylpiperazin-1-yl)methanone]: the EC50 under setting [1] is 100 nM. On the same count and under the same terms, then `CCc1cnc(N2CCC(COc3ccc(C4=CCC(C(=O)NCC(F)(F)F)CC4)cc3F)CC2)nc1` (stereo not drawn) [Example 307, 4-(4-((1-(5-ethylpyrimidin-2-yl)piperidin-4-yl)methoxy)-3-fluorophenyl)-N-(2,2,2-trifluoroethyl)cyclohex-3-enecarboxamide], with 88 nM; and `CCc1cnc(N2CCC(COc3ccc(C4=CCC(C(=O)N5CCC(N6CCCCC6)CC5)CC4)cc3F)CC2)nc1` (stereo not drawn) [Example 297, 1,4′-bipiperidin-1′-yl(4-(4-((1-(5-ethylpyrimidin-2-yl)piperidin-4-yl)methoxy)-3-fluorophenyl)cyclohex-3-enyl)methanone], with 120 nM. As to `CCN1CCN(C(=O)C2CC=C(c3ccc(OCC4CCN(C(=O)OC(C)(C)C)CC4)cc3)CC2)CC1` (stereo not drawn) [Example 203, tert-butyl 4-((4-(4-(4-ethylpiperazine-1-carbonyl)cyclohex-1-enyl)phenoxy)methyl)piperidine-1-carboxylate], the EC50 (Table 2, read-out: EC50 value) was no more than 50 nM. Take `CC(C)c1noc(N2CCC(COc3ccc(C4=CCC(C(=O)N5CCC(C#N)CC5)CC4)cn3)CC2)n1` (stereo not drawn) [Example 338, 1-(4-(6-((1-(3-isopropyl-1,2,4-oxadiazol-5-yl)piperidin-4-yl)methoxy)pyridin-3-yl)cyclohex-3-enecarbonyl)piperidine-4-carbonitrile]: the EC50 was 40 nM under setting [1] and no more than 50 nM (Table 2, read-out: EC50 value). As to `CC(C)c1noc(N2CCC(COc3ccc(C4=CCC(C(=O)NC5CCC5)CC4)cc3F)CC2)n1` (stereo not drawn) [Example 364, N-cyclobutyl-4-(3-fluoro-4-((1-(3-isopropyl-1,2,4-oxadiazol-5-yl)piperidin-4-yl)methoxy)phenyl)cyclohex-3-enecarboxamide], the EC50 under setting [1] was 85 nM. Turning to `CCc1cnc(N2CCC(COc3ccc(C4=CCC(C(=O)N5CCC(N6CCCC6)CC5)CC4)cc3F)CC2)nc1` (stereo not drawn) [Example 298, (4-(4-((1-(5-ethylpyrimidin-2-yl)piperidin-4-yl)methoxy)-3-fluorophenyl)cyclohex-3-enyl)(4-(pyrrolidin-1-yl)piperidin-1-yl)methanone], under setting [1], the EC50 was found to be 150 nM. For `CCc1cnc(N2CCC(COc3ccc(C4=CCC(C(=O)N5CCC(CCO)CC5)CC4)cc3F)CC2)nc1` (stereo not drawn) [Example 296, (4-(4-((1-(5-ethylpyrimidin-2-yl)piperidin-4-yl)methoxy)-3-fluorophenyl)cyclohex-3-enyl)(4-(2-hydroxyethyl)piperidin-1-yl)methanone], the EC50 under setting [1] was 6.8 nM and the EC50 (Table 2, read-out: EC50 value) is no more than 50 nM.

In the case of `CCc1cnc(N2CCC(COc3ccc(C4=CCC(C(=O)N5CCN(C)CC5)CC4)cc3F)CC2)nc1` (stereo not drawn) [Example 428, (4-(4-((1-(5-ethylpyrimidin-2-yl)piperidin-4-yl)methoxy)-3-fluorophenyl)cyclohex-3-enyl)(4-methylpiperazin-1-yl)methanone], the EC50 under setting [1] was 70 nM. As to `CCc1cnc(N2CCC(COc3ccc(C4=CCC(C(=O)N5CCSCC5)CC4)cc3C#N)CC2)nc1` (stereo not drawn) [Example 389, 2-((1-(5-ethylpyrimidin-2-yl)piperidin-4-yl)methoxy)-5-(4-(thiomorpholine-4-carbonyl)cyclohex-1-enyl)benzonitrile], under setting [1], the EC50 came out at 68 nM. As for `CC(C)c1noc(N2CCC(COc3ccc(C4=CCC(C(=O)N5CCCCC5)CC4)cc3F)CC2)n1` (stereo not drawn) [Example 332, (4-(3-fluoro-4-((1-(3-isopropyl-1,2,4-oxadiazol-5-yl)piperidin-4-yl)methoxy)phenyl)cyclohex-3-enyl)(piperidin-1-yl)methanone], the EC50 by setting is: under setting [1], 6.7 nM; (Table 2, read-out: EC50 value) no more than 50 nM. With `CCc1cnc(N2CCC(COc3ccc(C4=CCC(C(=O)N5CCC5)CC4)c(F)c3)CC2)nc1` (stereo not drawn) [Example 425, azetidin-1-yl(4-(4-((1-(5-ethylpyrimidin-2-yl)piperidin-4-yl)methoxy)-2-fluorophenyl)cyclohex-3-enyl)methanone], the EC50 by setting is: under setting [1], 48 nM; (Table 2, read-out: EC50 value) no more than 50 nM. As to `CC(C)(C)OC(=O)N1CCC(COc2ccc(C3=CCC(C(=O)N4CCSCC4)CC3)nc2)CC1` (stereo not drawn) [Example 328, tert-butyl 4-((6-(4-(thiomorpholine-4-carbonyl)cyclohex-1-enyl)pyridin-3-yloxy)methyl)piperidine-1-carboxylate], the EC50 reads like this: under setting [1], 21 nM; (Table 2, read-out: EC50 value) no more than 50 nM. In the case of `CC(C)c1noc(N2CCC(COc3ccc(C4=CCC(C(=O)N5CCC(N6CCCCC6)CC5)CC4)cc3F)CC2)n1` (stereo not drawn) [Example 362, 1,4′-bipiperidin-1′-yl(4-(3-fluoro-4-((1-(3-isopropyl-1,2,4-oxadiazol-5-yl)piperidin-4-yl)methoxy)phenyl)cyclohex-3-enyl)methanone], under setting [1], the EC50 was 180 nM. As for `CC(C)c1noc(N2CCC(COc3ccc(C4=CCC(C(=O)N5CCC(C(N)=O)CC5)CC4)cc3F)CC2)n1` (stereo not drawn) [Example 361, 1-(4-(3-fluoro-4-((1-(3-isopropyl-1,2,4-oxadiazol-5-yl)piperidin-4-yl)methoxy)phenyl)cyclohex-3-enecarbonyl)piperidine-4-carboxamide], the EC50 runs as follows: under setting [1], 48 nM; (Table 2, read-out: EC50 value) no more than 50 nM. As for `CCc1cnc(N2CCC(COc3ccc(C4=CCC(C(=O)N5CCCCC5)CC4)cn3)CC2)nc1` (stereo not drawn) [Example 350, (4-(6-((1-(5-ethylpyrimidin-2-yl)piperidin-4-yl)methoxy)pyridin-3-yl)cyclohex-3-enyl)(piperidin-1-yl)methanone], the EC50 under setting [1] worked out at 52 nM. With `CCc1cnc(N2CCC(COc3ccc(C4=CCC(C(=O)N5CCN(C(=O)C=C(C)C)CC5)CC4)cc3)CC2)nc1` (stereo not drawn) [Example 414, 1-(4-(4-(4-((1-(5-ethylpyrimidin-2-yl)piperidin-4-yl)methoxy)phenyl)cyclohex-3-enecarbonyl)piperazin-1-yl)-3-methylbut-2-en-1-one], the EC50 under setting [1] worked out at 27 nM and the EC50 (Table 2, read-out: EC50 value) is no more than 50 nM.

As to `O=C(OC(CF)CF)N1CCC(COc2ccc(C3=CCC(C(=O)N4CCOCC4)CC3)cc2F)CC1` (stereo not drawn) [Example 447, 1,3-difluoropropan-2-yl 4-((2-fluoro-4-(4-(morpholine-4-carbonyl)cyclohex-1-enyl)phenoxy)methyl)piperidine-1-carboxylate], under setting [1], the EC50 is 62 nM. Turning to `CCc1cnc(N2CCC(COc3ccc(C4=CCC(C(=O)N5CCCCC5)CC4)c(F)c3)CC2)nc1` (stereo not drawn) [Example 426, (4-(4-((1-(5-ethylpyrimidin-2-yl)piperidin-4-yl)methoxy)-2-fluorophenyl)cyclohex-3-enyl)(piperidin-1-yl)methanone], the half-maximal effective concentration (EC50) runs as follows: under setting [1], 6.7 nM; (Table 2, read-out: EC50 value) no more than 50 nM.

As a reminder, the EC50 is the concentration needed to bring the measured effect to its halfway point.
